Counter-ions that a name gives are not always drawn.
What was measured:
[1] = system: zfOatp1f1; assay type: in vitro ADME, zebrafish (Danio rerio)
[2] = system: zfOatp1f2-1; assay type: in vitro ADME, zebrafish (Danio rerio)
[3] = system: zfOatp1d1; assay type: in vitro ADME, zebrafish (Danio rerio)
[4] = system: zfOatp1f1; assay type: in vitro ADME, zebrafish (Danio rerio); remark: listed apart in the source
[5] = system: zfOatp1f2-2; assay type: in vitro ADME, zebrafish (Danio rerio)
[6] = system: zfOatp1f3; assay type: in vitro ADME, zebrafish (Danio rerio)
[7] = system: Ser/Thr protein phosphatases (ser/thrPP); details: cited from earlier work
[8] = system: OATPs; details: cited from earlier work
[9] = system: zfOatp1f2-1; assay type: in vitro ADME, zebrafish (Danio rerio); remark: listed apart in the source
[10] = system: zfOatp1d1; assay type: in vitro ADME, zebrafish (Danio rerio); remark: listed apart in the source
[11] = system: zfOatp1f4-1; assay type: in vitro ADME, zebrafish (Danio rerio)
[12] = system: zfOatp1f4-2; assay type: in vitro ADME, zebrafish (Danio rerio)
[13] = system: zfOatp2b1; assay type: in vitro ADME, zebrafish (Danio rerio)
[14] = system: zfOatp1f2-2; assay type: in vitro ADME, zebrafish (Danio rerio); remark: listed apart in the source
[15] = system: zfOatp1f3; assay type: in vitro ADME, zebrafish (Danio rerio); remark: listed apart in the source
[16] = system: zfOatp4a1; assay type: in vitro ADME, zebrafish (Danio rerio)
[17] = system: carp; details: in vivo, po; cited from earlier work
[18] = system: zfOatp1f4-1; assay type: in vitro ADME, zebrafish (Danio rerio); remark: listed apart in the source
[19] = system: zfOatp1f4-2; assay type: in vitro ADME, zebrafish (Danio rerio); remark: listed apart in the source
[20] = uptake for up to 30 min, transfected HEK293 (Figure S1)

Molecule: C[C@]12CC[C@@H]3c4ccc(OS(=O)(=O)O)cc4CC[C@H]3[C@@H]1CCC2=O [E3S, estrone sulfate ammonium salt]
- [3H] E3S transport, prolonged uptake [1, 20]: no [^3H] E3S transport was observed
- [3H] E3S transport, prolonged uptake [2, 20]: no [^3H] E3S transport was observed

Molecule: Microcystin-RR [MC-RR]
- MC congener transport (screen) [3]: transported all tested MC-congeners
- time after which nearly linear uptake plateaus [3]: 12 h
- MC congener transport (screen) [4]: absence of MC transport
- MC congener transport (screen) [5]: did not transport any of the four MC-congeners tested
- MC congener transport (screen) [6]: did not transport any of the four MC-congeners tested
- inhibition of ser/thrPP activities [7]: approximately equimolar concentrations
- MC congener transport by OATPs [8]: lacked transport

Molecule: Microcystin-LW [MC-LW]
- MC congener transport (screen) [3]: transported all tested MC-congeners
- time within which transport occurred [3]: ≤ 1 h
- MC congener transport (screen) [4]: absence of MC transport
- MC congener transport (screen) [9]: did take up
- time dependent MC uptake, relative speed [9]: slower than that observed for zfOatp1d1
- MC congener transport (screen) [5]: did not transport any of the four MC-congeners tested
- MC congener transport (screen) [6]: did not transport any of the four MC-congeners tested
- inhibition of ser/thrPP activities [7]: approximately equimolar concentrations
- MC congener transport by OATPs [8]: transport was demonstrated

Molecule: C[C@H](CCC(=O)NCCS(=O)(=O)O)[C@H]1CC[C@H]2[C@@H]3[C@H](O)C[C@@H]4C[C@H](O)CC[C@]4(C)[C@H]3C[C@H](O)[C@]12C [TCA, taurocholic acid]
- transport of Oatp substrate (uptake vs empty vector cells) [10]: transported
- transport of Oatp substrate (uptake vs empty vector cells) [1]: did not transport any of the three substrates
- transport of Oatp substrate (uptake vs empty vector cells) [2]: did not transport any of the three substrates
- transport of Oatp substrate (uptake vs empty vector cells) [11]: none of the other zfOatps transported
- transport of Oatp substrate (uptake vs empty vector cells) [12]: none of the other zfOatps transported
- transport of Oatp substrate (uptake vs empty vector cells) [13]: did not transport any of the three substrates

Molecule: CN(Cc1cnc2nc(N)nc(N)c2n1)c1ccc(C(=O)N[C@@H](CCC(=O)O)C(=O)O)cc1 [MTX, methotrexate disodium salt]
- transport of Oatp substrate (uptake vs empty vector cells) [10]: transported
- transport of Oatp substrate (uptake vs empty vector cells) [1]: did not transport any of the three substrates
- transport of Oatp substrate (uptake vs empty vector cells) [2]: did not transport any of the three substrates
- transport of Oatp substrate (uptake vs empty vector cells) [14]: none of the other zfOatps transported
- transport of Oatp substrate (uptake vs empty vector cells) [15]: none of the other zfOatps transported
- transport of Oatp substrate (uptake vs empty vector cells) [11]: none of the other zfOatps transported
- transport of Oatp substrate (uptake vs empty vector cells) [12]: none of the other zfOatps transported
- transport of Oatp substrate (uptake vs empty vector cells) [13]: did not transport any of the three substrates
- transport of Oatp substrate (uptake vs empty vector cells) [16]: did not transport any of the three substrates

Molecule: Microcystin-LR [MC-LR]
- MC congener transport (screen) [3]: transported all tested MC-congeners
- concentration dependent uptake (saturability) [3]: saturable
- time up to which uptake is linear [3]: up to 6 h
- MC congener transport (screen) [4]: absence of MC transport
- MC congener transport (screen) [9]: did take up
- time dependent MC uptake, relative speed [9]: much slower than MC-LW and MC-LF
- MC congener transport (screen) [5]: did not transport any of the four MC-congeners tested
- MC congener transport (screen) [6]: did not transport any of the four MC-congeners tested
- inhibition of ser/thrPP activities [7]: approximately equimolar concentrations
- MC congener transport by OATPs [8]: comparably minor extent
- MC-LR in brain and muscle tissue [17]: detectable
- pathological changes in hepatopancreas and kidney [17]: time-dependent pathological changes

Molecule: Microcystin-LF [MC-LF]
- MC congener transport (screen) [3]: transported all tested MC-congeners
- affinity of zfOatp1d1 (Km), MC-LF compared to MC-LR [3]: 2 fold
- concentration dependent uptake (saturability) [3]: saturable
- relative Vmax (uptake velocity), MC-LF versus MC-LR [3]: 6 fold
- time within which transport occurred [3]: ≤ 1 h
- MC congener transport (screen) [4]: absence of MC transport
- MC congener transport (screen) [9]: did take up
- time dependent MC uptake, relative speed [9]: slower than that observed for zfOatp1d1
- MC congener transport (screen) [5]: did not transport any of the four MC-congeners tested
- MC congener transport (screen) [6]: did not transport any of the four MC-congeners tested
- MC congener transport (screen) [18]: transported
- time dependent MC uptake, relative speed [18]: Comparable transport
- MC congener transport (screen) [19]: transported
- time dependent MC uptake, relative speed [19]: Comparable transport
- inhibition of ser/thrPP activities [7]: approximately equimolar concentrations
- MC congener transport by OATPs [8]: transport was demonstrated
